Results: the NIST ThermoML archive (doi:10.1016/j.fluid.2008.04.016)
Values joined by “and” are separate entries in the source; they are usually repeats but may differ in a detail not shown here. Identical values can stand only once.

Details: Liquid

CC(C)(C)c1cc(C(C)(C)C)cc(C(C)(C)C)c1 [1,3,5-tri-tert-butylbenzene]
Transpiration method
Details | vapor or sublimation pressure [kPa]
352.15 K | 0.1311
354.45 K | 0.1544
356.65 K | 0.1766
358.95 K | 0.2039
359.15 K | 0.2029
361.35 K | 0.2292
362.05 K | 0.2407
363.45 K | 0.2577
365.15 K | 0.2888
367.45 K | 0.3257
370.15 K | 0.3801
372.65 K | 0.4354
374.95 K | 0.4944
377.35 K | 0.5671
379.55 K | 0.6317
382.65 K | 0.7387

CC(C)(C)c1ccc(C(C)(C)C)cc1 [1,4-bis(1,1-dimethylethyl)benzene]
Transpiration method
Details | vapor or sublimation pressure [kPa]
354.15 K | 0.3792
356.45 K | 0.4257
358.95 K | 0.4877
361.75 K | 0.5742
364.25 K | 0.6537
366.45 K | 0.7231
366.55 K | 0.7158
369.15 K | 0.8057
372.05 K | 0.9399
374.15 K | 1.036
376.45 K | 1.171
379.75 K | 1.376
381.75 K | 1.507
383.25 K | 1.647

Cc1cc(C(C)(C)C)cc(C(C)(C)C)c1 [3,5-di-tert-butyltoluene]
Transpiration method
Details | vapor or sublimation pressure [kPa]
308.25 K | 0.01666
310.65 K | 0.01931
313.35 K | 0.02366
315.45 K | 0.02884
317.95 K | 0.03401
320.45 K | 0.04037
323.05 K | 0.04906
325.55 K | 0.05841
327.95 K | 0.06909
330.55 K | 0.08097
333.05 K | 0.09656
335.55 K | 0.1131
338.15 K | 0.1302
340.65 K | 0.1549
343.05 K | 0.1773
345.55 K | 0.2067
348.1 K | 0.2475
350.45 K | 0.2845
353.05 K | 0.3277
355.65 K | 0.3743
358.15 K | 0.4358

Details | vapor or sublimation pressure
379.62 K | 1.318 kPa
379.86 K | 1.338 kPa
380.13 K | 1.358 kPa
393.09 K | 2.478 kPa
393.16 K | 2.483 kPa
393.19 K | 2.483 kPa
393.25 K | 2.488 kPa
402.75 K | 3.746 kPa
402.76 K | 3.746 kPa
402.77 K | 3.746 kPa
410.74 K | 5.173 kPa
410.81 K | 5.179 kPa
410.83 K | 5.184 kPa
410.85 K | 5.189 kPa
428.47 K | 10.05 kPa
428.48 K | 10.05 kPa
439.99 K | 14.94 kPa
440 K | 14.94 kPa
449.13 K | 20.06 kPa and 20.07 kPa
449.14 K | 20.06 kPa
449.15 K | 20.07 kPa
449.2 K | 20.09 kPa
449.21 K | 20.09 kPa
449.22 K | 20.1 kPa
456.12 K | 24.89 kPa
456.13 K | 24.89 kPa
456.14 K | 24.89 kPa
462.5 K | 30.11 kPa
462.52 K | 30.11 kPa
467.98 K | 35.24 kPa
472.54 K | 40.02 kPa
478.05 K | 46.5 kPa
478.06 K | 46.5 kPa
482.73 K | 52.54 kPa and 52.65 kPa and 52.66 kPa
482.76 K | 52.69 kPa
482.77 K | 52.7 kPa
487.56 K | 59.65 kPa
487.57 K | 59.67 kPa
487.58 K | 59.69 kPa
491.67 K | 66.2 kPa and 66.19 kPa
491.68 K | 66.21 kPa
495.5 K | 72.78 kPa
495.53 K | 72.83 kPa
498.98 K | 79.21 kPa
498.99 K | 79.22 kPa
503.36 K | 87.92 kPa and 87.93 kPa
505.71 K | 92.91 kPa
505.72 K | 92.91 kPa
508.06 K | 98.13 kPa
508.07 K | 98.13 kPa
508.08 K | 98.17 kPa
508.09 K | 98.18 kPa
509.38 K | 101.13 kPa and 101.14 kPa and 101.15 kPa
509.93 K | 102.44 kPa
509.94 K | 102.45 kPa
510.55 K | 103.88 kPa
510.56 K | 103.87 kPa and 103.88 kPa

CC(c1ccccc1)C(C)(C)C (stereo unspecified) [(1,2,2-trimethylpropyl)benzene]
Transpiration method
Details | vapor or sublimation pressure [kPa]
296 K | 0.04082
298.5 K | 0.04885
301 K | 0.05923
303.5 K | 0.07018
305.9 K | 0.08326
308.4 K | 0.09874
310.9 K | 0.1175
313.4 K | 0.1378
315.9 K | 0.1579
318.3 K | 0.185
320.8 K | 0.2193
323.3 K | 0.2551
325.8 K | 0.292
